Reference: patent US11781118B2, “Preparation of L-amino acid deaminase mutant and application thereof” (Jiangnan University, priority 2020, dated 2023)

How the values were obtained:
CC(C)[C@H](N)C(=O)O = test: Kinetic parameters with L-valine as substrate, parent enzyme PmirLAAD WT; assay type: biochemical, Proteus mirabilis; conditions: other: L-valine substrate, 25° C., initial rate of α-ketoisovaleric acid
Protocol: (§1) In order to evaluate the mutants, kinetic parameters of the mutant parent PmirLAAD^WT and the mutants PmirLAAD^M1, PmirLAAD^M2, PmirLAAD^M3 and PmirLAAD^M4 at 25° C. were determined in the disclosure.
(§2) kcat/Km was calculated based on the initial rate of α-ketoisovaleric acid produced from hydrolyzed L-valine substrates with different concentrations determined at 25° C. Product inhibition of the parent enzyme and the mutants was determined by a product inhibition constant determination experiment in the transformation process. A PmirLAAD^WT parent enzyme strain and mutant strains were respectively added to a reaction solution with the final concentration of wet cells of 10 g/L. 60 mM L-valine was used as the substrate, 10-100 mM α-ketoisovaleric acid was added to the transformation system, the initial reaction rate V0 was determined after about 30 min of reaction, the maximum reaction rate Vmax was determined after about 2 h of reaction, and the product inhibition constant KPI was calculated according to the following formula: […]

[1] = target: Proteus mirabilis L-amino acid deaminase (PmirLAAD) mutant M4, S98A/T105A/S106A/L341A, SEQ ID NO: 15 (Proteus mirabilis, UniProt Q51890, L341A/S106A/S98A/T105A); test: Kinetic parameters with L-valine as substrate, mutant M4; assay type: biochemical; conditions: M4 compared with parent enzyme, "increased by", 25° C.
Chain of Proteus mirabilis L-amino acid deaminase (PmirLAAD) mutant M4, S98A/T105A/S106A/L341A, SEQ ID NO: 15 (Proteus mirabilis, UniProt Q51890, L341A/S106A/S98A/T105A) (Q51890 whole entry S98A/T105A/S106A/L341A): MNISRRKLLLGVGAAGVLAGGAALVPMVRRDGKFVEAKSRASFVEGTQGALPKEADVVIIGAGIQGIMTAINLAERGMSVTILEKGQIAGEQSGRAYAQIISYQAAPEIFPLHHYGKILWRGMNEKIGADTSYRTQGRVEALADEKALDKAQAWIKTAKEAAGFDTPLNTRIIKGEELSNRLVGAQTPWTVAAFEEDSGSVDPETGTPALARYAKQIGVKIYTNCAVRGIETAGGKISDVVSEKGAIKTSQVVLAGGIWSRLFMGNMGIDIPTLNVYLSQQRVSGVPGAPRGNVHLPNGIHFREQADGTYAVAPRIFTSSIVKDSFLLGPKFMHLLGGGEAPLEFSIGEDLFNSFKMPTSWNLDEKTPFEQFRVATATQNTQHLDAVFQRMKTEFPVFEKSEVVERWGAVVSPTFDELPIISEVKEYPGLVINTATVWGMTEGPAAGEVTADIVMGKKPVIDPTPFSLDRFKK
Protocol: as §1, §2

[2] = target: Proteus mirabilis L-amino acid deaminase (PmirLAAD), wild-type parent, SEQ ID NO: 1 (Proteus mirabilis, UniProt Q51890); test: Product inhibition constant determination, parent enzyme PmirLAAD WT; assay type: biochemical; conditions: relative to WT
Chain of Proteus mirabilis L-amino acid deaminase (PmirLAAD), wild-type parent, SEQ ID NO: 1 (Q51890 entry or part of it): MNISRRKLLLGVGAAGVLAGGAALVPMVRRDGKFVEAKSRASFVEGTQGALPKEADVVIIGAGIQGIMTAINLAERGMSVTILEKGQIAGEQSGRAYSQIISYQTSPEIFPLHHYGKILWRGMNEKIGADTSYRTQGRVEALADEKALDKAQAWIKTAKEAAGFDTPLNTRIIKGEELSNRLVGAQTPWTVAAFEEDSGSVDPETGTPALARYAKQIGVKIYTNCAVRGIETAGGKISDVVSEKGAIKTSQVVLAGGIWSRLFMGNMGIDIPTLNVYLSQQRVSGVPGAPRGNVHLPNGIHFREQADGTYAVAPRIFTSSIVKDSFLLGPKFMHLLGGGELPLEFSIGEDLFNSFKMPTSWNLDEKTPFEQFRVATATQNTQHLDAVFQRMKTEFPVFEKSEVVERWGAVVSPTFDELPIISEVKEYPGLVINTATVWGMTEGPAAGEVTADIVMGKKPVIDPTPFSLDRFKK
Protocol: as §1, §2
(§3) V0: initial reaction rate, Vmax: maximum reaction rate, Km: Michaelis constant, [S]: substrate concentration, [P]: product concentration, KPI: product inhibition constant.

[3] = test system: Proteus mirabilis L-amino acid deaminase (PmirLAAD) mutant M1, S98A, SEQ ID NO: 3; test: Product inhibition constant determination, mutant M1; assay type: biochemical; conditions: M1 relative to WT
Protocol: as §1, §2, §3

[4] = target: Proteus mirabilis L-amino acid deaminase (PmirLAAD) mutant M2, S98A/T105A, SEQ ID NO: 11 (Proteus mirabilis, UniProt Q51890, S98A/T105A); test: Product inhibition constant determination, mutant M2; assay type: biochemical; conditions: M2 relative to WT
Chain of Proteus mirabilis L-amino acid deaminase (PmirLAAD) mutant M2, S98A/T105A, SEQ ID NO: 11 (Q51890 whole entry S98A/T105A): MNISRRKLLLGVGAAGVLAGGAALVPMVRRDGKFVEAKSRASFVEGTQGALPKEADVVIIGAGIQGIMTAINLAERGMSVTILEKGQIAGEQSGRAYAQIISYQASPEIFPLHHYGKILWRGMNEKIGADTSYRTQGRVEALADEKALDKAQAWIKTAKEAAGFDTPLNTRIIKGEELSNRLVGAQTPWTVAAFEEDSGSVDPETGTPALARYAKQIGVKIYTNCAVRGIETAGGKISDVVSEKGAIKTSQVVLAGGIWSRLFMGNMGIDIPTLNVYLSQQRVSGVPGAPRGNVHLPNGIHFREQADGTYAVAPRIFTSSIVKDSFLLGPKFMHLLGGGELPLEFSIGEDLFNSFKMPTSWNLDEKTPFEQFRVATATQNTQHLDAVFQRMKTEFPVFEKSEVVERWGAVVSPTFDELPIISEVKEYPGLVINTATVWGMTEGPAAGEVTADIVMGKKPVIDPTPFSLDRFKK
Protocol: as §1, §2, §3

[5] = test system: Proteus mirabilis L-amino acid deaminase (PmirLAAD) mutant M3, S98A/T105A/S106A, SEQ ID NO: 13; test: Product inhibition constant determination, mutant M3; assay type: biochemical; conditions: M3 relative to WT
Protocol: as §1, §2, §3

[6] = test system: Proteus mirabilis L-amino acid deaminase (PmirLAAD) mutant M4, S98A/T105A/S106A/L341A, SEQ ID NO: 15; test: Product inhibition constant determination, mutant M4; assay type: biochemical
Protocol: as §1, §2, §3

[7] = Shake flask screening of mutants: whole-cell transformation of L-valine, α-ketoisovaleric acid determined by HPLC; assay type: cell-based, E. coli BL21; conditions: transformation temperature 25° C., pH 8.0, 24 h
Protocol: Preparation of sample for determining α-ketoisovaleric acid content by HPLC: 1 mL of a transformed transformation solution is centrifuged at 12000 rpm for 5 min, the supernatant is diluted and filtered through a 0.45 μm filtration membrane, and the filtrate is for liquid chromatography.
Determination of α-ketoisovaleric acid content by HPLC: a waters high performance liquid chromatograph (equipped with a UV-visible detector) and a Bio-Rad Aminex HPX-87H (300×7.8 mm, 9 μm) chromatographic column are used, and the mobile phase is dilute sulfuric acid with the concentration of 2.5 mmol/L. The mobile phase is filtered through a 0.22 μm filtration membrane; the filtrate is subjected to ultrasonic degassing; and detection is performed at the flow rate of 0.6 mL/min, the column temperature of 35° C. and the ultraviolet detection wavelength of 210 nm.
(2) Shake flask screening of single mutants: The obtained 4 mutant strains and a strain containing wild-type L-amino acid deaminase were respectively inoculated into an LB seed medium, and cultured at 200 rpm at 37° C. for about 10 h. The products were respectively inoculated into a shake flask fermentation medium with the inoculum size of 5% of the medium by volume, and cultured at 200 rpm at 37° C. until OD600 was about 0.8. IPTG with the final concentration of 0.04 mmol/L was added for induction, and the induction was performed at 200 rpm at 25° C. for 14 h. The product was centrifuged at 6000 rpm for 8 min to collect bacterial cells. The bacterial cells collected by centrifugation were used for later transformation experiments.
Transformation conditions: transformation temperature 25° C., reaction pH 8.0, and transformation time 24 h.
The yield of α-ketoisovaleric acid of the transformation solution after the completion of the transformation was determined by HPLC. Finally, S98A produced α-ketoisovaleric acid at the highest yield.

Proteus mirabilis L-amino acid deaminase (PmirLAAD), wild-type parent, SEQ ID NO: 1 (Proteus mirabilis)
kcat/Km (CC(C)[C@H](N)C(=O)O): 4.33 M⁻¹ s⁻¹

CC(C)[C@H](N)C(=O)O [L-valine]
increase of kcat/Km (catalytic efficiency) [1]: 5.2 times

CC(C)C(=O)C(=O)O [α-ketoisovaleric acid]
Times of change (KPI) [2]: 1 | Times of change (KPI) [3]: 2.6 | Times of change (KPI) [4]: 3.9 | Times of change (KPI) [5]: 4.6 | increase of product inhibition constant ([6]; M4 compared with parent enzyme, "increased by"): 5.7 times | Times of change (KPI) ([6]; M4 relative to WT): 6.7

B1: PmirLAAD^S98A/T105A/S106A (protein)
chain: MNISRRKLLLGVGAAGVLAGGAALVPMVRRDGKFVEAKSRASFVEGTQGALPKEADVVIIGAGIQGIMTAINLAERGMSVTILEKGQIAGEQSGRAYAQIISYQAAPEIFPLHHYGKILWRGMNEKIGADTSYRTQGRVEALADEKALDKAQAWIKTAKEAAGFDTPLNTRIIKGEELSNRLVGAQTPWTVAAFEEDSGSVDPETGTPALARYAKQIGVKIYTNCAVRGIETAGGKISDVVSEKGAIKTSQVVLAGGIWSRLFMGNMGIDIPTLNVYLSQQRVSGVPGAPRGNVHLPNGIHFREQADGTYAVAPRIFTSSIVKDSFLLGPKFMHLLGGGELPLEFSIGEDLFNSFKMPTSWNLDEKTPFEQFRVATATQNTQHLDAVFQRMKTEFPVFEKSEVVERWGAVVSPTFDELPIISEVKEYPGLVINTATVWGMTEGPAAGEVTADIVMGKKPVIDPTPFSLDRFKK
α-ketoisovaleric acid [7]: 60.6 g/L

B2: PmirLAAD^S98A/T105A/L341A (protein)
chain: MNISRRKLLLGVGAAGVLAGGAALVPMVRRDGKFVEAKSRASFVEGTQGALPKEADVVIIGAGIQGIMTAINLAERGMSVTILEKGQIAGEQSGRAYAQIISYQASPEIFPLHHYGKILWRGMNEKIGADTSYRTQGRVEALADEKALDKAQAWIKTAKEAAGFDTPLNTRIIKGEELSNRLVGAQTPWTVAAFEEDSGSVDPETGTPALARYAKQIGVKIYTNCAVRGIETAGGKISDVVSEKGAIKTSQVVLAGGIWSRLFMGNMGIDIPTLNVYLSQQRVSGVPGAPRGNVHLPNGIHFREQADGTYAVAPRIFTSSIVKDSFLLGPKFMHLLGGGEAPLEFSIGEDLFNSFKMPTSWNLDEKTPFEQFRVATATQNTQHLDAVFQRMKTEFPVFEKSEVVERWGAVVSPTFDELPIISEVKEYPGLVINTATVWGMTEGPAAGEVTADIVMGKKPVIDPTPFSLDRFKK
α-ketoisovaleric acid [7]: 56.1 g/L

B3: PmirLAAD^S98A/S106A/L341A (protein)
chain: MNISRRKLLLGVGAAGVLAGGAALVPMVRRDGKFVEAKSRASFVEGTQGALPKEADVVIIGAGIQGIMTAINLAERGMSVTILEKGQIAGEQSGRAYAQIISYQTAPEIFPLHHYGKILWRGMNEKIGADTSYRTQGRVEALADEKALDKAQAWIKTAKEAAGFDTPLNTRIIKGEELSNRLVGAQTPWTVAAFEEDSGSVDPETGTPALARYAKQIGVKIYTNCAVRGIETAGGKISDVVSEKGAIKTSQVVLAGGIWSRLFMGNMGIDIPTLNVYLSQQRVSGVPGAPRGNVHLPNGIHFREQADGTYAVAPRIFTSSIVKDSFLLGPKFMHLLGGGEAPLEFSIGEDLFNSFKMPTSWNLDEKTPFEQFRVATATQNTQHLDAVFQRMKTEFPVFEKSEVVERWGAVVSPTFDELPIISEVKEYPGLVINTATVWGMTEGPAAGEVTADIVMGKKPVIDPTPFSLDRFKK
α-ketoisovaleric acid [7]: 53.5 g/L

B4: PmirLAAD^T105A/S106A/L341A (protein)
chain: MNISRRKLLLGVGAAGVLAGGAALVPMVRRDGKFVEAKSRASFVEGTQGALPKEADVVIIGAGIQGIMTAINLAERGMSVTILEKGQIAGEQSGRAYSQIISYQAAPEIFPLHHYGKILWRGMNEKIGADTSYRTQGRVEALADEKALDKAQAWIKTAKEAAGFDTPLNTRIIKGEELSNRLVGAQTPWTVAAFEEDSGSVDPETGTPALARYAKQIGVKIYTNCAVRGIETAGGKISDVVSEKGAIKTSQVVLAGGIWSRLFMGNMGIDIPTLNVYLSQQRVSGVPGAPRGNVHLPNGIHFREQADGTYAVAPRIFTSSIVKDSFLLGPKFMHLLGGGEAPLEFSIGEDLFNSFKMPTSWNLDEKTPFEQFRVATATQNTQHLDAVFQRMKTEFPVFEKSEVVERWGAVVSPTFDELPIISEVKEYPGLVINTATVWGMTEGPAAGEVTADIVMGKKPVIDPTPFSLDRFKK
α-ketoisovaleric acid [7]: 59.6 g/L
